Test results reported in the supplement of paper PMC10307832.

How the values were obtained:
Experiment in all cases: relative viability (nuclei count vs DMSO), 5 days (fraction); higher = more cells survive
AZD5582 + Palbociclib = compound: C[C@@H](C(=O)N[C@@H](C1CCCCC1)C(=O)N2CCC[C@H]2C(=O)N[C@@H]3[C@@H](CC4=CC=CC=C34)OCC#CC#CCO[C@@H]5CC6=CC=CC=C6[C@@H]5NC(=O)[C@@H]7CCCN7C(=O)[C@H](C8CCCCC8)NC(=O)[C@H](C)NC)NC [AZD5582] + CC(=O)c1c(C)c2cnc(Nc3ccc(N4CCNCC4)cn3)nc2n(C2CCCC2)c1=O [Palbociclib] (partner 0.5 µM)
In short: (§1)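 For relative viability, nuclei counts in treated wells were divided by those in vehicle wells. Lung cancer cell lines had been pin-tool dosed in 1536-well plates the day after seeding and cultured for 5 days, then fixed and stained in one step (final 0.05% Triton X-100, 1% formaldehyde, 1 ug/ml Hoechst) and imaged at 4×. Doses were one drug alone or a fixed anchor-drug dose plus five library-drug doses (not always all listed) in √10 steps, and values are duplicate-plate medians.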

AZD5582 + Alpelisib = compound: C[C@@H](C(=O)N[C@@H](C1CCCCC1)C(=O)N2CCC[C@H]2C(=O)N[C@@H]3[C@@H](CC4=CC=CC=C34)OCC#CC#CCO[C@@H]5CC6=CC=CC=C6[C@@H]5NC(=O)[C@@H]7CCCN7C(=O)[C@H](C8CCCCC8)NC(=O)[C@H](C)NC)NC [AZD5582] + Cc1nc(NC(=O)N2CCC[C@H]2C(N)=O)sc1-c1ccnc(C(C)(C)C(F)(F)F)c1 [Alpelisib] (partner 2 µM)
In short: as §1

[1] = compound: Cn1nnc2c(C(N)=O)ncn2c1=O [Temozolomide] + CS(=O)(=O)N1CCN(Cc2cc3nc(-c4cccc5[nH]ncc45)nc(N4CCOCC4)c3s2)CC1 [Pictilisib] (partner 1 µM)
In short: as §1

[2] = compound: Cn1nnc2c(C(N)=O)ncn2c1=O [Temozolomide] + Nc1nc2[nH]cc(CCc3ccc(C(=O)N[C@@H](CCC(=O)O)C(=O)O)cc3)c2c(=O)[nH]1 [Pemetrexed] (partner 0.2 µM)
In short: as §1

Row | Cell Line | relative viability (AZD5582 + Palbociclib; first compound 0.001581 µM) | relative viability (AZD5582 + Palbociclib; first compound 0.005 µM) | relative viability (AZD5582 + Palbociclib; first compound 0.01581 µM) | relative viability (AZD5582 + Palbociclib; first compound 0.05 µM) | relative viability (AZD5582 + Alpelisib; first compound 0.001581 µM) | relative viability (AZD5582 + Alpelisib; first compound 0.005 µM) | relative viability (AZD5582 + Alpelisib; first compound 0.01581 µM) | relative viability (AZD5582 + Alpelisib; first compound 0.05 µM) | relative viability ([1]; first compound 0.2 µM) | relative viability ([1]; first compound 0.6325 µM) | relative viability ([1]; first compound 2 µM) | relative viability ([1]; first compound 6.325 µM) | relative viability ([1]; first compound 20 µM) | relative viability ([2]; first compound 0.2 µM) | relative viability ([2]; first compound 0.6325 µM) | relative viability ([2]; first compound 2 µM) | relative viability ([2]; first compound 6.325 µM) | relative viability ([2]; first compound 20 µM)
1 | NCI-H1734 | 0.295 | 0.356 | 0.366 | 0.333 | 0.729 | 0.761 | 0.705 | 0.903 | 0.508 | 0.418 | 0.475 | 0.429 | 0.426 | 0.398 | 0.422 | 0.431 | 0.394 | 0.386
2 | NCI-H2126 | 0.331 | 0.334 | 0.36 | 0.379 | 0.785 | 0.766 | 0.695 | 0.762 | 0.475 | 0.554 | 0.489 | 0.511 | 0.457 | 0.573 | 0.653 | 0.762 | 0.666 | 0.67
3 | PC-3 [JPC-3] | 0.483 | 0.512 | 0.58 | 0.478 | 0.889 | 0.966 | 0.999 | 0.703 | 0.71 | 0.775 | 0.798 | 0.774 | 0.296 | 1.22 | 1.13 | 1.16 | 1.06 | 0.458
4 | NCI-H1993 | 0.564 | 0.558 | 0.655 | 0.664 | 0.706 | 0.669 | 0.647 | 0.671 | 0.853 | 0.819 | 0.871 | 0.826 | 0.834 | 0.517 | 0.669 | 0.598 | 0.569 | 0.525
5 | NCI-H2087 | 0.188 | 0.23 | 0.225 | 0.241 | 1.08 | 1.01 | 1.13 | 1.19 | 1.08 | 0.858 | 0.927 | 0.895 | 0.851 | 0.624 | 0.667 | 0.663 | 0.676 | 0.696
6 | HOP-62 | 0.297 | 0.46 | 0.453 | 0.379 | 0.997 | 0.934 | 0.87 | 1.25 | 0.918 | 0.961 | 0.816 | 0.385 | 0.545 | 0.302 | 0.264 | 0.287 | 0.314 | 0.294
7 | HCC-15 | 0.501 | 0.582 | 0.615 | 0.309 | 0.771 | 0.648 | 0.922 | 0.555 | 0.818 | 0.82 | 0.737 | 0.693 | 0.786 | 0.24 | 0.221 | 0.227 | 0.207 | 0.228
8 | NCI-H2405 | 0.474 | 0.505 | 0.475 | 0.433 | 0.913 | 1.07 | – | 0.933 | 0.392 | 0.434 | 0.487 | 0.338 | 0.465 | 1.08 | 1.03 | 1.14 | 1.03 | 0.965
9 | COR-L 105 | 0.383 | 0.394 | 0.415 | 0.452 | 0.961 | 0.847 | 0.981 | 1.49 | 0.408 | 0.366 | 0.433 | 0.39 | 0.273 | 1.12 | 1.07 | 1.02 | 1.06 | 1.06
10 | PC-14 | 0.401 | 0.322 | 0.47 | 0.34 | 0.834 | 1.03 | 0.927 | 0.971 | 0.834 | 0.791 | 0.737 | 0.614 | 0.0773 | 0.138 | 0.12 | 0.138 | 0.145 | 0.14
11 | NCI-H1975 | 0.547 | 0.728 | 0.548 | 0.52 | 0.725 | 0.894 | 0.611 | 0.964 | 0.272 | 0.308 | 0.311 | 0.302 | 0.311 | 0.307 | 0.323 | 0.319 | 0.299 | 0.289
12 | LCLC-103H | 0.47 | 0.469 | 0.432 | 0.377 | 0.97 | 1.23 | 0.471 | 0.64 | 0.614 | 0.523 | 0.816 | 0.509 | 0.62 | 0.467 | 0.461 | 0.519 | 0.465 | 0.515
13 | NCI-H2228 | 0.674 | 0.706 | 0.84 | 0.127 | 0.776 | 0.625 | 0.924 | 0.365 | 0.354 | 0.36 | 0.227 | 0.234 | 0.47 | 0.383 | 0.349 | 0.348 | 0.266 | 0.352
14 | NCI-H661 | 0.403 | 0.44 | 0.464 | 0.429 | 0.592 | 0.524 | 0.557 | 0.521 | 0.313 | 0.371 | 0.39 | 0.388 | 0.39 | 0.92 | 0.882 | 1.01 | 0.858 | 0.759
15 | NCI-H460 | 0.102 | 0.189 | 0.211 | 0.148 | 0.401 | 0.445 | 0.536 | 0.621 | 0.326 | 0.318 | 0.472 | 0.272 | 0.309 | 0.0579 | 0.0556 | 0.0638 | 0.0585 | 0.0573
16 | NCI-H1792 | 0.629 | 0.715 | 0.624 | 0.776 | 0.616 | 0.738 | 0.651 | 0.939 | 0.199 | 0.304 | 0.241 | 0.314 | 0.256 | 1.11 | 0.993 | 0.954 | 0.819 | 1.01
17 | NCI-H2023 | 0.35 | 0.469 | 0.359 | 0.4 | 0.562 | 0.538 | 0.567 | 0.609 | 0.254 | 0.225 | 0.248 | 0.207 | 0.265 | 0.232 | 0.249 | 0.249 | 0.221 | 0.228
